{"source": "patent EP1285920A1", "about": "“C10 Ester sustituted taxanes as antitumor agents” (Florida State University Research Foundation, Inc., priority 2001, dated 2003)", "key": {"DU145 prostate carcinoma": {"tested_on": "DU145 prostate carcinoma", "text": "Dosing was initiated on Day 1. […] Treatment groups are detailed in Table 5."}, "A375 melanoma": {"tested_on": "A375 melanoma", "conditions": "for survival extension compared to Group 1 controls: i.v. qd x 1; for MDS (n): mean days of survival until neoplasm reached 2.0 g, terminated Day 60; for MDS (n) / Toxic Deaths / Complete Response / Partial Response / Stable Disease / Survivors / Mean Score: i.v. qd x 1 at estimated MTD (Taxol 24 mg/kg, Taxotere 70 mg/kg), 6 mice/group (Taxotere 7); for Toxic Deaths / Complete Response / Partial Response / Stable Disease / Survivors: number of mice; for Complete Response / Partial Response / Stable Disease / Survivors: Day 60; for Mean Score: tumor scoring system", "procedure": "Dosing was initiated on Day 1. […] Taxotere was given i.v. on a qd x 1 schedule at a dose of 70 mg/kg. […] The study was terminated on Day 60. Treatment groups are detailed in Table 9."}, "VM46 colon carcinoma": {"tested_on": "VM46 colon carcinoma", "conditions": "for Complete Response / Partial Response / Stable Disease / Survivors: Day 64", "procedure": "Dosing was initiated on Day 1. […] Taxotere was given i.v. at a dose of 70 mg/kg on a qd x 1 schedule."}, "[1]": {"tested_on": "Panc-1 pancreatic carcinoma", "test": "In vivo evaluation against Panc-1 human pancreatic carcinoma (Example 17)", "protocol": "The dosing volume was 0.3 ml per 20 g mouse.\nFemale NCr-nude mice were implanted subcutaneously with 1 mm^3 Panc-1 pancreatic carcinoma fragments in the flank and sorted into treatment groups of six mice each. […] Dosing was initiated on Day 1. The antitumor compounds were given i.v. at an estimated maximum tolerated dose (MTD) appropriate for each agent on a qd x 1 schedule (single administration of compound). […] The vehicle was administered i.v. to control mice in Group 1 on the qd x 1 schedule. The study was terminated on Day 60.\nThe mean days of survival is the number of days after which a neoplasm reached a size of 1.5 g and the animal was euthanized. A complete response is obtained if the tumor shrinks to a size smaller than its size on Day 1 of the study."}, "HCT116": {"tested_on": "HCT116", "test": "In Vitro cytotoxicity measured by the cell colony formation assay", "format": "cell-based, human", "conditions": "Homo sapiens, HCT-116; read-out: IN VITRO ID 50 HCT116", "in_short": "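Four hundred cells per dish in McCoy's 5a medium with 10% FBS were allowed to attach for 5 h at 37 °C. They were then exposed to compound for 72 h at 37 °C, added as a 10× stock made fresh in medium. After HBSS rinsing and refeeding, colonies were counted after 7 days.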"}, "A2780 ovarian carcinoma": {"tested_on": "A2780 ovarian carcinoma", "procedure": "Dosing was initiated on Day 1. […] Taxotere was given i.v. on a qd x 1 schedule at a dose of 70 mg/kg. […] The study was terminated on Day 60. Treatment groups are detailed in Table 7."}, "[2]": {"conditions": "number of 5 mice, i.v. qd x 1 at estimated MTD (Taxol 24 mg/kg split), Day 91"}, "[3]": {"conditions": "number of mice, i.v. qd x 1, mg/kg: Taxol 24, 0499 77, 0503 72.6, 0670 123.1, 0706 107.6, 0838 72.6, 0854 46.6, 0983 67.4, Taxotere 70, 6 mice/group"}, "[4]": {"conditions": "number of mice, i.v. qd x 1, mg/kg: Taxol 36, 0499 77, 0503 72.6, 0670 123.1, 0706 107.6, 0838 72.6, 0854 76.9, 6 mice/group, Day 60"}, "[5]": {"conditions": "number of mice, i.v. qd x 1 at estimated MTD (Taxol 24 mg/kg, Taxotere 70 mg/kg, 0983 72.6 mg/kg), 5 mice/group (Taxotere 6), Day 60"}}, "note": "Where two headings read alike, the source gives them in different places.", "data": [{"molecule": "CC(=O)O[C@@]12CO[C@@H]1C[C@H](O)[C@@]1(C)C(=O)[C@H](OC(=O)C3CC3)C3=C(C)[C@@H](OC(=O)[C@H](O)[C@H](C=C(C)C)NC(=O)OC(C)(C)C)C[C@@](O)([C@@H](OC(=O)c4ccccc4)[C@H]21)C3(C)C", "note": "[Compound 0838]", "values": [{"measurement": "antitumor activity", "setting": "DU145 prostate carcinoma; DU145, i.v. qd x 1", "value": "active"}, {"measurement": "complete responses", "setting": "DU145 prostate carcinoma; DU145, i.v. qd x 1, five mice per group", "value": 2}, {"measurement": "Mean Score", "setting": "DU145 prostate carcinoma; i.v. qd x 1 at estimated MTD (Taxol 24 mg/kg split), 5 mice/group, Day 91", "value": "7 ± 1.5"}, {"measurement": "Stable Disease", "setting": "DU145 prostate carcinoma; number of 5 mice, tumor did not reach 1.5 g by end of study, i.v. qd x 1 at estimated MTD (Taxol 24 mg/kg split), Day 91", "value": 1}, {"measurement": "Toxic Deaths", "setting": "DU145 prostate carcinoma; number of 5 mice, i.v. qd x 1 at estimated MTD (Taxol 24 mg/kg as two split doses), Day 91", "value": 0}, {"measurement": "Complete Response", "setting": "DU145 prostate carcinoma; [2]", "value": 2}, {"measurement": "Partial Response", "setting": "DU145 prostate carcinoma; [2]", "value": 1}, {"measurement": "Survivors", "setting": "DU145 prostate carcinoma; [2]", "value": 4}, {"measurement": "survival extension compared to Group 1 controls", "setting": "A375 melanoma; A375", "value": 133, "unit": "%"}, {"measurement": "MDS (n)", "setting": "A375 melanoma", "value": "33.5 ± 3.4 (5) days"}, {"measurement": "Toxic Deaths", "setting": "A375 melanoma", "value": 0}, {"measurement": "Complete Response", "setting": "A375 melanoma", "value": 1}, {"measurement": "Partial Response", "setting": "A375 melanoma", "value": 0}, {"measurement": "Stable Disease", "setting": "A375 melanoma", "value": 0}, {"measurement": "Survivors", "setting": "A375 melanoma", "value": 1}, {"measurement": "Mean Score", "setting": "A375 melanoma", "value": "3.8 ± 1.2"}, {"measurement": "Toxic Deaths", "setting": "VM46 colon carcinoma; VM46, i.v. qd x 1, six mice per group", "value": "no toxic deaths"}, {"measurement": "Toxic Deaths", "setting": "VM46 colon carcinoma; [3]", "value": 0}, {"measurement": "Complete Response", "setting": "VM46 colon carcinoma; [3]", "value": 0}, {"measurement": "Partial Response", "setting": "VM46 colon carcinoma; [3]", "value": 1}, {"measurement": "Stable Disease", "setting": "VM46 colon carcinoma; [3]", "value": 3}, {"measurement": "Survivors", "setting": "VM46 colon carcinoma; [3]", "value": 4}, {"measurement": "MDS", "setting": "[1]; Panc-1 (Example 17), i.v. qd x 1 (compounds estimated MTD; Taxol 36 mg/kg split), days until tumor 1.5 g, ended Day 60", "value": "47 to 56", "unit": "days"}, {"measurement": "Toxic Deaths", "setting": "[1]; Panc-1 (Example 17), i.v. qd x 1, six mice per group", "value": "One"}, {"measurement": "MDS (n)", "setting": "[1]; mean days of survival until neoplasm reached 1.5 g, i.v. qd x 1, mg/kg: Taxol 36, 0499 77, 0503 72.6, 0670 123.1, 0706 107.6, 0838 72.6, 0854 76.9, 6 mice/group, terminated Day 60", "value": "54.2 ± 0.9 (2) days"}, {"measurement": "Toxic Deaths", "setting": "[1]; number of mice, i.v. qd x 1, mg/kg: Taxol 36, 0499 77, 0503 72.6, 0670 123.1, 0706 107.6, 0838 72.6, 0854 76.9, 6 mice/group", "value": 1}, {"measurement": "Complete Response", "setting": "[1]; [4]", "value": 0}, {"measurement": "Partial Response", "setting": "[1]; [4]", "value": 2}, {"measurement": "Stable Disease", "setting": "[1]; [4]", "value": 3}, {"measurement": "Survivors", "setting": "[1]; [4]", "value": 3}, {"measurement": "Mean Score", "setting": "[1]; tumor scoring system, i.v. qd x 1, mg/kg: Taxol 36, 0499 77, 0503 72.6, 0670 123.1, 0706 107.6, 0838 72.6, 0854 76.9, 6 mice/group", "value": "3.6 ± 1.1"}]}, {"molecule": "CC(=O)O[C@@]12CO[C@@H]1C[C@H](O)[C@@]1(C)C(=O)[C@H](O)C3=C(C)[C@@H](OC(=O)[C@H](O)[C@@H](NC(=O)OC(C)(C)C)c4ccccc4)C[C@@](O)([C@@H](OC(=O)c4ccccc4)[C@H]21)C3(C)C", "note": "[Taxotere, docetaxel, reference compound]", "values": [{"measurement": "IC50", "setting": "HCT116", "value": 0.6, "unit": "nM"}, {"measurement": "antitumor activity", "setting": "A2780 ovarian carcinoma; A2780, i.v. qd x 1", "value": "more active than Taxol"}, {"measurement": "survival extension compared to Group 1 controls", "setting": "A2780 ovarian carcinoma; A2780, i.v. qd x 1", "value": 134, "unit": "%"}, {"measurement": "MDS", "setting": "A2780 ovarian carcinoma; A2780, i.v. qd x 1 (compounds estimated MTD; Taxol 24 mg/kg split; Taxotere 70 mg/kg), days until tumor 2.0 g, ended Day 60", "value": 27.4, "unit": "days"}, {"measurement": "MDS (n)", "setting": "A2780 ovarian carcinoma; mean days of survival until neoplasm reached 2.0 g, i.v. qd x 1 at estimated MTD (Taxol 24 mg/kg, Taxotere 70 mg/kg, 0983 72.6 mg/kg), 5 mice/group (Taxotere 6), terminated Day 60", "value": "27.4 ± 3.5 (6) days"}, {"measurement": "Toxic Deaths", "setting": "A2780 ovarian carcinoma; number of mice, i.v. qd x 1 at estimated MTD (Taxol 24 mg/kg, Taxotere 70 mg/kg, 0983 72.6 mg/kg), 5 mice/group (Taxotere 6)", "value": 0}, {"measurement": "Complete Response", "setting": "A2780 ovarian carcinoma; [5]", "value": 0}, {"measurement": "Partial Respons", "setting": "A2780 ovarian carcinoma; [5]", "value": 0}, {"measurement": "Stable Disease", "setting": "A2780 ovarian carcinoma; [5]", "value": 0}, {"measurement": "Survivors", "setting": "A2780 ovarian carcinoma; [5]", "value": 0}, {"measurement": "Mean Score", "setting": "A2780 ovarian carcinoma; tumor scoring system, i.v. qd x 1 at estimated MTD (Taxol 24 mg/kg, Taxotere 70 mg/kg, 0983 72.6 mg/kg), 5 mice/group (Taxotere 6)", "value": "2.5 ± 0.3"}, {"measurement": "survival extension compared to Group 1 controls", "setting": "A375 melanoma; A375", "value": 49, "unit": "%"}, {"measurement": "MDS", "setting": "A375 melanoma; A375, i.v. qd x 1 (Taxol 24 mg/kg split; Taxotere 70 mg/kg), days until tumor 2.0 g, ended Day 60", "value": 21.5, "unit": "days"}, {"measurement": "MDS (n)", "setting": "A375 melanoma", "value": "21.5 ± 0.5 (7) days"}, {"measurement": "Toxic Deaths", "setting": "A375 melanoma", "value": 0}, {"measurement": "Complete Response", "setting": "A375 melanoma", "value": 0}, {"measurement": "Partial Response", "setting": "A375 melanoma", "value": 0}, {"measurement": "Stable Disease", "setting": "A375 melanoma", "value": 0}, {"measurement": "Survivors", "setting": "A375 melanoma", "value": 0}, {"measurement": "Mean Score", "setting": "A375 melanoma", "value": "2 ± 0"}, {"measurement": "MDS", "setting": "VM46 colon carcinoma; VM46, i.v. qd x 1 (Taxol 24 mg/kg split; Taxotere 70 mg/kg), days until tumor 1.5 g", "value": 45.3, "unit": "days"}, {"measurement": "MDS (n)", "setting": "VM46 colon carcinoma; mean days of survival until neoplasm reached 1.5 g, i.v. qd x 1, mg/kg: Taxol 24, 0499 77, 0503 72.6, 0670 123.1, 0706 107.6, 0838 72.6, 0854 46.6, 0983 67.4, Taxotere 70, 6 mice/group, terminated Day 64", "value": "45.3 ± 3.6 (6) days"}, {"measurement": "Toxic Deaths", "setting": "VM46 colon carcinoma; [3]", "value": 0}, {"measurement": "Complete Response", "setting": "VM46 colon carcinoma; [3]", "value": 0}, {"measurement": "Partial Response", "setting": "VM46 colon carcinoma; [3]", "value": 0}, {"measurement": "Stable Disease", "setting": "VM46 colon carcinoma; [3]", "value": 0}, {"measurement": "Survivors", "setting": "VM46 colon carcinoma; [3]", "value": 0}, {"measurement": "Mean Score", "setting": "VM46 colon carcinoma; tumor scoring system, i.v. qd x 1, mg/kg: Taxol 24, 0499 77, 0503 72.6, 0670 123.1, 0706 107.6, 0838 72.6, 0854 46.6, 0983 67.4, Taxotere 70, 6 mice/group", "value": "2 ± 0"}]}]}
